From ChEMBL document CHEMBL5034038, “Zanamivir-Cholesterol Conjugate: A Long-Acting Neuraminidase Inhibitor with Potent Efficacy against Drug-Resistant Influenza Viruses” (J Med Chem, 2021)
Active and inactive are the calls of the source. No cut-off for these calls is given here.

What was measured:
[1] = Inhibition of Influenza A virus (A/California/07/2009 (H1N1)) neuraminidase N1 H275Y mutant using MUNANA as substrate preincubated for 30 mins followed by substrate addition by fluorescence method
[2] = Inhibition of Influenza A virus (A/Moscow/10/99 (H3N2)) neuraminidase N2 E119V variant using MUNANA as substrate preincubated for 30 mins followed by substrate addition by fluorescence method
Influenza A virus [3] = assay: Antiviral activity against Influenza A virus (A/California/07/2009 (H1NI)) harboring NA H275Y mutant infected in dog MDCK cells assessed as reduction in virus replication incubated for 72 hrs by CCK8 assay; format: functional, organism-based, A/California/07/2009(H1N1)
Influenza A virus [4] = assay: Antiviral activity against Influenza A virus (A/Moscow/10/99 (H3N2)) harboring NA E119V mutant infected in dog MDCK cells assessed as reduction in virus replication incubated for 72 hrs by CCK8 assay; format: functional, organism-based
Influenza A virus [5] = assay: Protection against Influenza A virus (A/California/07/2009 (H1NI)) harboring NA H275Y mutant infected in Balb/c mouse at 4.2 to 8.4 uM/kg, IV administered once daily for 7 days starting from 24 hrs prior to viral infection; format: functional; conditions: dose 4.2-8.4 µM/Kg
Influenza A virus [6] = assay: Protection against Influenza A virus (A/California/07/2009 (H1NI)) harboring NA H275Y mutant infected in Balb/c mouse at 8.4 uM/kg, IV administered once daily for 7 days starting from 24 hrs post to viral infection; format: functional

Structure (SMILES)	IC50 [1] [nM]	IC50 [2] [nM]	EC50 (Influenza A virus [3]) [nM]	EC50 (Influenza A virus [4]; read-out: EC50) [nM]	EC50 (Influenza A virus [4]) [nM]	Activity (Influenza A virus [5]; A/California/07/2009(H1N1), time 7.0 day)	Activity (Influenza A virus [6]; A/Puerto Rico/8/1934(H1N1), time 7.0 day)	Activity (Influenza A virus [5]; time 7 day, at 4.2 to 8.4 µmol/kg) [%]	Activity (Influenza A virus [6]; time 7 day, at 8.4 µmol/kg) [%]
CC(=O)N[C@H]1[C@H]([C@H](OC(=O)NCCOCCOCCOCc2cn(CCCCCCO[C@H]3CC[C@@]4(C)C(=CC[C@H]5[C@@H]6CC[C@H]([C@H](C)CCCC(C)C)[C@@]6(C)CC[C@@H]54)C3)nn2)[C@H](O)CO)OC(C(=O)O)=C[C@@H]1NC(=N)N	127	773	653	4810	–	–	–	–	–
CC(=O)N[C@H]1[C@H]([C@H](O)[C@H](O)CO)OC(C(=O)O)=C[C@@H]1NC(=N)N [ZANAMIVIR]	1	10	26.6	–	5240	–	–	–	–
CCCCCCn1cc(COCCOCCOCCOCCOCCOCCNC(=O)O[C@@H]([C@@H]2OC(C(=O)O)=C[C@H](NC(=N)N)[C@H]2NC(C)=O)[C@H](O)CO)nn1	30.3	296	612	4730	–	–	–	–	–
CCC(CC)O[C@@H]1C=C(C(=O)O)C[C@H](N)[C@H]1NC(C)=O [OSELTAMIVIR CARBOXYLATE]	938	22.4	2610	30200	–	inactive	inactive	–	–
CC(=O)N[C@H]1[C@H]([C@H](OC(=O)NCCOCCOCCOCCOCCOCCOCc2cn(CCCCCCO[C@H]3CC[C@@]4(C)C(=CC[C@H]5[C@@H]6CC[C@H]([C@H](C)CCCC(C)C)[C@@]6(C)CC[C@@H]54)C3)nn2)[C@H](O)CO)OC(C(=O)O)=C[C@@H]1NC(=N)N	22	162	22	422	–	–	–	100	100
CC(=O)N[C@H]1[C@H]([C@H](OC(=O)NCCOCCOCCOCCOCCOCCOCCOCCOCCOCCOCCOCCOCc2cn(CCCCCCO[C@H]3CC[C@@]4(C)C(=CC[C@H]5[C@@H]6CC[C@H]([C@H](C)CCCC(C)C)[C@@]6(C)CC[C@@H]54)C3)nn2)[C@H](O)CO)OC(C(=O)O)=C[C@@H]1NC(=N)N	573	8580	2600	8260	–	–	–	–	–
